Experimental data published in PubChem BioAssay (NCI).
Where “and” joins values, the source holds several entries; their conditions need not be identical. Identical values can stand only once.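 1) Cells in 96-well plates. 2) Compound, 48 h, 5 concentrations. 3) Linear interpolation between surrounding doses. 4) Unreached endpoint = highest concentration. GI50 marks 50% less growth. TGI: concentration producing complete growth inhibition.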

Assays:
Assay in all cases: NCI tumour cell line growth inhibition, 48 h; in the data active = GI50 below about 0.43 µM; inactive = the rest
[1] = system: 786-0 renal
[2] = system: A498 renal
[3] = system: A549 NSCLC
[4] = system: ACHN renal
[5] = system: CAKI-1 renal
[6] = system: CCRF-CEM leukemia
[7] = system: COLO 205 colon
[8] = system: DLD-1 colon
[9] = system: DMS 114 small cell lung
[10] = system: DMS 273 small cell lung
[11] = system: EKVX NSCLC
[12] = system: HCC-2998 colon
[13] = system: HCT-116 colon
[14] = system: HCT-15 colon
[15] = system: HL-60(TB) leukemia
[16] = system: HOP-18 NSCLC
[17] = system: HOP-62 NSCLC
[18] = system: HOP-92 NSCLC
[19] = system: HT29 colon
[20] = system: IGROV1 ovarian
[21] = system: K-562 leukemia
[22] = system: KM12 colon
[23] = system: KM20L2 colon
[24] = system: LOX IMVI melanoma
[25] = system: LXFL 529 NSCLC
[26] = system: M14 melanoma
[27] = system: M19-MEL melanoma
[28] = system: MALME-3M melanoma
[29] = system: MOLT-4 leukemia
[30] = system: NCI-H226 lung
[31] = system: NCI-H23 lung
[32] = system: NCI-H460 lung
[33] = system: NCI-H522 lung
[34] = system: OVCAR-3 ovarian
[35] = system: OVCAR-4 ovarian
[36] = system: OVCAR-5 ovarian
[37] = system: OVCAR-8 ovarian
[38] = system: RPMI-8226 leukemia
[39] = system: RXF 393 renal
[40] = system: RXF-631 renal
[41] = system: SF-268 CNS
[42] = system: SF-295 CNS
[43] = system: SF-539 CNS
[44] = system: SK-MEL-2 melanoma
[45] = system: SK-MEL-28 melanoma
[46] = system: SK-MEL-5 melanoma
[47] = system: SK-OV-3 ovarian
[48] = system: SN12C renal
[49] = system: SNB-19 CNS
[50] = system: SNB-75 CNS
[51] = system: SNB-78 CNS
[52] = system: SR leukemia
[53] = system: SW-620 colon
[54] = system: TK-10 renal
[55] = system: U251 CNS
[56] = system: UACC-257 melanoma
[57] = system: UO-31 renal
[58] = system: XF 498 CNS
[59] = system: BT-549 breast
[60] = system: DU-145 prostate
[61] = system: HS 578T breast
[62] = system: MCF7 breast
[63] = system: MDA-MB-231 breast
[64] = system: MDA-MB-435
[65] = system: MDA-N
[66] = system: NCI/ADR-RES ovarian
[67] = system: P388 leukemia
[68] = system: PC-3 prostate
[69] = system: T-47D breast
[70] = system: UACC-62 melanoma

COC(=O)c1cccc2cccc(C(=O)Nc3ccc(Cl)cc3)c12
> 100 µM: TGI [1] | TGI [2] | TGI [3] | TGI [4] | TGI [5] | TGI [9] | TGI [11] | TGI [12] | TGI [13] | TGI [16] | TGI [17] | TGI [18] | TGI [19] | TGI [20] | TGI [22] | TGI [23] | TGI [24] | TGI [25] | TGI [26] | TGI [27] | TGI [28] | TGI [29] | TGI [30] | TGI [31] | TGI [32] | TGI [34] | TGI [35] | TGI [36] | TGI [37] | TGI [39] | TGI [40] | TGI [41] | TGI [42] | TGI [43] | TGI [44] | TGI [45] | TGI [46] | TGI [47] | TGI [48] | TGI [49] | TGI [50] | TGI [51] | TGI [54] | TGI [55] | TGI [56] | TGI [57] | TGI [58]
> 62.3 µM: TGI [7]
> 53.1 µM: TGI [14]
> 91 µM: TGI [33]
22.1 µM: TGI [15]
> 67.1 µM: TGI [6]
> 66.8 µM: TGI [53]
> 33 µM: TGI [21]
22.2 µM: TGI [10]
33.7 µM: TGI [38]
50.8 µM: TGI [52]
> 62.5 µM: TGI [8]

O=c1[nH]c(=O)n([C@H]2CCCO2)cc1F
> 2360 µM: TGI [52]
720 µM and > 5000 µM: TGI [30]
994 µM and > 4660 µM: TGI [17]
> 4650 µM: TGI [61]
864 µM and 3520 µM: TGI [43]
> 2600 µM: TGI [46]
> 5000 µM: TGI [1] | TGI [3] | TGI [4] | TGI [59] | TGI [5] | TGI [6] | TGI [7] | TGI [60] | TGI [11] | TGI [13] | TGI [14] | TGI [15] | TGI [18] | TGI [19] | TGI [20] | TGI [21] | TGI [22] | TGI [24] | TGI [26] | TGI [28] | TGI [62] | TGI [63] | TGI [64] | TGI [65] | TGI [29] | TGI [31] | TGI [33] | TGI [66] | TGI [34] | TGI [35] | TGI [36] | TGI [37] | TGI [68] | TGI [38] | TGI [39] | TGI [41] | TGI [42] | TGI [44] | TGI [45] | TGI [48] | TGI [49] | TGI [53] | TGI [69] | TGI [54] | TGI [55] | TGI [56] | TGI [70] | TGI [57]
830 µM and > 3640 µM: TGI [32]
984 µM and > 5000 µM: TGI [47]
979 µM and > 5000 µM: TGI [2]
inactive: GI50 [1] 1780 µM | GI50 [2] > 2170 µM | GI50 [3] 625 µM | GI50 [4] 2600 µM | GI50 [5] 2100 µM | GI50 [6] 527 µM | GI50 [7] 1090 µM | GI50 [60] 910 µM | GI50 [11] > 2060 µM | GI50 [12] 1010 µM | GI50 [13] 1020 µM | GI50 [14] 1050 µM | GI50 [15] 1030 µM | GI50 [17] 2340 µM | GI50 [19] 1370 µM | GI50 [20] 2270 µM | GI50 [21] 2770 µM | GI50 [22] 1320 µM | GI50 [24] 1120 µM | GI50 [26] 1450 µM | GI50 [28] 1360 µM | GI50 [62] 575 µM | GI50 [64] 1350 µM | GI50 [65] 357 µM | GI50 [29] > 3500 µM | GI50 [30] 3650 µM | GI50 [31] 936 µM | GI50 [32] 291 µM | GI50 [33] > 2650 µM | GI50 [66] 3030 µM | GI50 [34] 1650 µM | GI50 [36] 2660 µM | GI50 [37] 2270 µM | GI50 [38] 666 µM | GI50 [39] 1060 µM | GI50 [41] 3000 µM | GI50 [42] > 4530 µM | GI50 [43] 374 µM | GI50 [44] 1950 µM | GI50 [45] 1040 µM | GI50 [46] 429 µM | GI50 [47] > 3620 µM | GI50 [48] 1910 µM | GI50 [50] > 5000 µM | GI50 [52] 473 µM | GI50 [53] 1430 µM | GI50 [69] 2610 µM | GI50 [54] 1880 µM | GI50 [55] > 4570 µM | GI50 [56] 3540 µM | GI50 [70] 2040 µM
826 µM and > 5000 µM: TGI [50]
565 µM: TGI [67]
> 3020 µM: TGI [12]
